Laboratory results from the supplement of paper PMC10307832.

Columns and labels:
Test in all cases: relative viability (nuclei count vs DMSO), 5 days (fraction); higher = more cells survive
NCI-H1792 = tested on: NCI-H1792
Outline: (§1)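 Relative viability was taken as the ratio of nuclei in treated wells to nuclei in vehicle wells. Lung cancer cell lines in 1536-well plates received compounds by pin tool one day after seeding, either one drug alone or a fixed anchor-drug dose plus five library-drug doses (not always all listed) in √10 steps. Nuclei were counted on 4× images after 5 days of treatment, and values are medians of duplicate plates.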

NCI-H2085 = tested on: NCI-H2085
Outline: as §1

LU99A = tested on: LU99A
Outline: as §1

SK-LU-1 = tested on: SK-LU-1
Outline: as §1

LC-2-ad = tested on: LC-2-ad
Outline: as §1

NCI-H2170 = tested on: NCI-H2170
Outline: as §1

SW 900 = tested on: SW 900
Outline: as §1

UMC-11 = tested on: UMC-11
Outline: as §1

HCC-78 = tested on: HCC-78
Outline: as §1

NCI-H1975 = tested on: NCI-H1975
Outline: as §1

LCLC-97TM1 = tested on: LCLC-97TM1
Outline: as §1

NCI-H1915 = tested on: NCI-H1915
Outline: as §1

EPLC-272H = tested on: EPLC-272H
Outline: as §1

HCC-366 = tested on: HCC-366
Outline: as §1

COR-L 105 = tested on: COR-L 105
Outline: as §1

A-427 = tested on: A-427
Outline: as §1

NCI-H1944 = tested on: NCI-H1944
Outline: as §1

NCI-H1793 = tested on: NCI-H1793
Outline: as §1

NCI-H358 = tested on: NCI-H358
Outline: as §1

HOP-62 = tested on: HOP-62
Outline: as §1

LXF-289 = tested on: LXF-289
Outline: as §1

NCI-H460 = tested on: NCI-H460
Outline: as §1

NCI-H1755 = tested on: NCI-H1755
Outline: as §1

What does the source list for `NC(=O)Nc1cc(-c2cccc(F)c2)sc1C(=O)N[C@H]1CCCNC1` [AZD7762] + O=C(c1cc(Cc2n[nH]c(=O)c3ccccc23)ccc1F)N1CCN(C(=O)C2CC2)CC1 [Olaparib] (partner 8 µM)?
relative viability (NCI-H1792; first compound 0.01 µM): 0.336; relative viability (NCI-H1792; first compound 0.03162 µM): 0.421; relative viability (NCI-H1792; first compound 0.1 µM): 0.364; relative viability (NCI-H1792; first compound 0.3162 µM): 0.352; relative viability (NCI-H1792; first compound 1 µM): 0.221; relative viability (NCI-H2085; first compound 0.01 µM): 0.872; relative viability (NCI-H2085; first compound 0.03162 µM): 0.86; relative viability (NCI-H2085; first compound 0.1 µM): 0.917; relative viability (NCI-H2085; first compound 0.3162 µM): 0.88; relative viability (NCI-H2085; first compound 1 µM): 0.903; relative viability (LU99A; first compound 0.01 µM): 0.253; relative viability (LU99A; first compound 0.03162 µM): 0.246; relative viability (LU99A; first compound 0.1 µM): 0.202; relative viability (LU99A; first compound 0.3162 µM): 0.148; relative viability (LU99A; first compound 1 µM): 0.124; relative viability (SK-LU-1; first compound 0.01 µM): 0.477; relative viability (SK-LU-1; first compound 0.03162 µM): 0.389; relative viability (SK-LU-1; first compound 0.1 µM): 0.306; relative viability (SK-LU-1; first compound 0.3162 µM): 0.244; relative viability (SK-LU-1; first compound 1 µM): 0.186; relative viability (LC-2-ad; first compound 0.01 µM): 0.818; relative viability (LC-2-ad; first compound 0.03162 µM): 0.772; relative viability (LC-2-ad; first compound 0.1 µM): 0.781; relative viability (LC-2-ad; first compound 0.3162 µM): 0.703; relative viability (LC-2-ad; first compound 1 µM): 0.606; relative viability (NCI-H2170; first compound 0.01 µM): 0.553; relative viability (NCI-H2170; first compound 0.03162 µM): 0.579; relative viability (NCI-H2170; first compound 0.1 µM): 0.535; relative viability (NCI-H2170; first compound 0.3162 µM): 0.423; relative viability (NCI-H2170; first compound 1 µM): 0.254; relative viability (SW 900; first compound 0.01 µM): 0.887; relative viability (SW 900; first compound 0.03162 µM): 0.835; relative viability (SW 900; first compound 0.1 µM): 0.727; relative viability (SW 900; first compound 0.3162 µM): 0.949; relative viability (SW 900; first compound 1 µM): 0.47; relative viability (UMC-11; first compound 0.01 µM): 0.819; relative viability (UMC-11; first compound 0.03162 µM): 0.342; relative viability (UMC-11; first compound 0.1 µM): 0.277; relative viability (UMC-11; first compound 0.3162 µM): 0.256; relative viability (UMC-11; first compound 1 µM): 0.255; relative viability (HCC-78; first compound 0.01 µM): 0.86; relative viability (HCC-78; first compound 0.03162 µM): 1; relative viability (HCC-78; first compound 0.1 µM): 0.775; relative viability (HCC-78; first compound 0.3162 µM): 0.85; relative viability (HCC-78; first compound 1 µM): 0.515; relative viability (NCI-H1975; first compound 0.01 µM): 0.767; relative viability (NCI-H1975; first compound 0.03162 µM): 0.682; relative viability (NCI-H1975; first compound 0.1 µM): 0.638; relative viability (NCI-H1975; first compound 0.3162 µM): 0.538; relative viability (NCI-H1975; first compound 1 µM): 0.401; relative viability (LCLC-97TM1; first compound 0.01 µM): 0.493; relative viability (LCLC-97TM1; first compound 0.03162 µM): 0.523; relative viability (LCLC-97TM1; first compound 0.1 µM): 0.438; relative viability (LCLC-97TM1; first compound 0.3162 µM): 0.552; relative viability (LCLC-97TM1; first compound 1 µM): 0.198; relative viability (NCI-H1915; first compound 0.01 µM): 0.275; relative viability (NCI-H1915; first compound 0.03162 µM): 0.308; relative viability (NCI-H1915; first compound 0.1 µM): 0.272; relative viability (NCI-H1915; first compound 0.3162 µM): 0.209; relative viability (NCI-H1915; first compound 1 µM): 0.189; relative viability (EPLC-272H; first compound 0.01 µM): 1.08; relative viability (EPLC-272H; first compound 0.03162 µM): 0.707; relative viability (EPLC-272H; first compound 0.1 µM): 0.586; relative viability (EPLC-272H; first compound 0.3162 µM): 0.219; relative viability (EPLC-272H; first compound 1 µM): 0.0768; relative viability (HCC-366; first compound 0.01 µM): 0.364; relative viability (HCC-366; first compound 0.03162 µM): 0.305; relative viability (HCC-366; first compound 0.1 µM): 0.278; relative viability (HCC-366; first compound 0.3162 µM): 0.157; relative viability (HCC-366; first compound 1 µM): 0.0818; relative viability (COR-L 105; first compound 0.01 µM): 0.699; relative viability (COR-L 105; first compound 0.03162 µM): 0.643; relative viability (COR-L 105; first compound 0.1 µM): 0.529; relative viability (COR-L 105; first compound 0.3162 µM): 0.542; relative viability (COR-L 105; first compound 1 µM): 0.516; relative viability (A-427; first compound 0.01 µM): 0.865; relative viability (A-427; first compound 0.03162 µM): 0.767; relative viability (A-427; first compound 0.1 µM): 0.78; relative viability (A-427; first compound 0.3162 µM): 0.733; relative viability (A-427; first compound 1 µM): 0.379; relative viability (NCI-H1944; first compound 0.01 µM): 0.46; relative viability (NCI-H1944; first compound 0.03162 µM): 0.448; relative viability (NCI-H1944; first compound 0.1 µM): 0.504; relative viability (NCI-H1944; first compound 0.3162 µM): 0.532; relative viability (NCI-H1944; first compound 1 µM): 0.446; relative viability (NCI-H1793; first compound 0.01 µM): 0.886; relative viability (NCI-H1793; first compound 0.03162 µM): 0.909; relative viability (NCI-H1793; first compound 0.1 µM): 0.917; relative viability (NCI-H1793; first compound 0.3162 µM): 0.997; relative viability (NCI-H1793; first compound 1 µM): 0.248; relative viability (NCI-H358; first compound 0.01 µM): 0.872; relative viability (NCI-H358; first compound 0.03162 µM): 0.64; relative viability (NCI-H358; first compound 0.1 µM): 0.715; relative viability (NCI-H358; first compound 0.3162 µM): 0.408; relative viability (NCI-H358; first compound 1 µM): 0.212; relative viability (HOP-62; first compound 0.01 µM): 0.541; relative viability (HOP-62; first compound 0.03162 µM): 0.239; relative viability (HOP-62; first compound 0.1 µM): 0.313; relative viability (HOP-62; first compound 0.3162 µM): 0.297; relative viability (HOP-62; first compound 1 µM): 0.136; relative viability (LXF-289; first compound 0.01 µM): 1.11; relative viability (LXF-289; first compound 0.03162 µM): 1.18; relative viability (LXF-289; first compound 0.1 µM): 1.21; relative viability (LXF-289; first compound 0.3162 µM): 1.16; relative viability (LXF-289; first compound 1 µM): 1.28; relative viability (NCI-H460; first compound 0.01 µM): 0.441; relative viability (NCI-H460; first compound 0.03162 µM): 0.35; relative viability (NCI-H460; first compound 0.1 µM): 0.261; relative viability (NCI-H460; first compound 0.3162 µM): 0.132; relative viability (NCI-H460; first compound 1 µM): 0.0653; relative viability (NCI-H1755; first compound 0.01 µM): 1.01; relative viability (NCI-H1755; first compound 0.03162 µM): 0.92; relative viability (NCI-H1755; first compound 0.1 µM): 0.957; relative viability (NCI-H1755; first compound 0.3162 µM): 0.855; relative viability (NCI-H1755; first compound 1 µM): 0.619
